Read-outs that look alike come from different tables or passages of the source.
Experiments:
[1] = Solubility determination of salt forms of the compounds (10 mg, ultrapure water added incrementally); type: physicochemical; settings: 10 mg of the salt form, 25° C.±2° C., class = water volume used
Experimental: A weighed amount of 10 mg of the compound's salt form was placed in a vessel at 25° C.±2° C. Ultrapure water was added incrementally. The mixture was vigorously shaken for 30 seconds every 5 minutes and observed for 30 minutes. When no undissolved particles or droplets remained in the test system, the water solubility of the salt form was recorded according to the following criteria: • A: Water volume used is less than 0.1 mL; • B: Water volume used is greater than or equal to 0.1 mL and less than 1.0 mL; • C: Water volume used is greater than or equal to 1.0 mL and less than 5.0 mL.

SD rats [2] = settings: tail vein, ratio of minimum lethal dose to minimum effective anesthetic dose
Experimental: SD rats were used, with a single intravenous injection via the tail vein (administration rate of 0.02 ml/s and administration volume of 0.5-1.0 ml per 100 g body weight) in the experiment. The initial dose of the test compound started at 4ED50, and the actual administration dose was calculated based on the body weight measured before the test for each animal. The increase or decrease in subsequent doses was determined based on the results of the experimental animals (whether death occurred). The dose at which death first occurred was determined as the minimum lethal dose. […] The approximate therapeutic index is further classified as: A when the index is ≥5; B when the index is <5 but ≥3; and C when the index is <3.

SD rats [3] = assay: Anesthetic effect (minimum effective anesthetic dose, LORR) after single tail vein injection in rats; type: in vivo
Experimental: The dose at which the LORR first occur was determined as the minimum effective anesthetic dose. The minimum effective anesthetic dose is further classified as: A≤5 mg/kg; 5 mg/kg<B≤10 mg/kg; 10 mg/kg<C≤20 mg/kg; D>20 mg/kg in this invention.
The Up and down method was used to determine the ED50 of the compound causing the LORR. […] After observing five consecutive consistent directional changes in LORR occurrence and recovery, the ED50 was calculated using the Dixon-Mood formula. After determining the ED50, the onset time, duration of anesthesia, and emergence time of anesthesia were determined at an injection dose of 2ED50.
In the above experiments, in addition to recording the dose at which the LORR occurred, the onset time and emergence time of anesthesia, the duration of the LORR, and the duration of sedative effects could also be recorded. Meanwhile, circulatory effects experiments can be added to observe the effects of the compound on circulation and respiration in rats.

[4] = type: physicochemical
Experimental: Compound A6S (1 eq) was dissolved in Et2O (2 mL) at room temperature, and the corresponding acid (2 eq) was dissolved in Et2O (NO.1-NO.4) or MeOH (NO.5-NO.10). The above acid solution was slowly added to the reaction system containing Compound A6S using a syringe. NO.1-NO.3 was mixed and stirred at room temperature for 1 hour, and NO.5-NO.10 was mixed and stirred at room temperature for 16 hours. The mixture was filtered under suction to get the solid, then the solid was washed with Et2O, and dried to obtain the corresponding salt form of Compound A6S. Then, the solubility of each salt form was tested in ultrapure water.

[5] = well-known to those skilled in the art; cited from earlier work
[6] = intravenous injection; compared to propofol; cited from earlier work
[7] = vehicle DMSO: A3 31.8%, A14 66.7%, A17 79.2%, A21S 66.7%, A23 60%, A24 82.8%
[8] = vehicle DMSO: A3 31.8%, A14 66.7%, A17 79.2%, A21S 66.7%, A23 60%, A24 82.8%, A25S 70%
[9] = vehicle Pure water, sulfate salts

SMILES | Solubility [1] | Minimal effective anesthetic dose (SD rats [3]; [8]) | Minimal effective anesthetic dose (SD rats [3]; [9]) | Onset time (SD rats [3]; [9]) [min] | Righting Reflex Duration (SD rats [3]; [9]) [min] | Sedation Duration (SD rats [3]; [9]) [min] | also measured
COC(=O)CC(=O)N1CCN(c2cc(C(C)C)c(O)c([C@H](C)C3CC3)c2)CC1 [Compound A3] | C (C: Water volume used is greater than or equal to 1.0 mL and less than 5.0 mL) | C (10 mg/kg<C≤20 mg/kg) |  |  |  |  | Approximate therapeutic index (SD rats [2]; vehicle DMSO: A3 31.8%, A17 79.2%): B (B when the index is <5 but ≥3); Onset time (SD rats [3]; [7]): 0.37 to 0.52 min; Righting Reflex Duration (SD rats [3]; [7]): 1.02 to 2.08 min; Sedation Duration (SD rats [3]; [7]): 6.65 to 8.50 min
COC(=O)[C@@H](C)N1CCN(c2cc(C(C)C)c(O)c([C@H](C)C3CC3)c2)CC1 [Compound A6R] |  |  | A (A≤5 mg/kg) | 0.15 to 0.70 | 1.72 to 3.82 | 7.02 to 14.77 | 
COC(=O)[C@H](C)N1CCN(c2cc(C(C)C)c(O)c([C@H](C)C3CC3)c2)CC1 [Compound A6S] |  |  | B (5 mg/kg<B≤10 mg/kg) | 0.47 to 0.73 | 1.08 to 5.67 | 7.93 to 15.12 | Salt formation (Yes/No) ([4]; A6S with Benzenesulfonic acid (NO.6)): Yes; Salt formation (Yes/No) ([4]; A6S with Hydrochloric acid (NO.1)): Yes; Salt formation (Yes/No) ([4]; A6S with Maleic acid (NO.8)): Yes; Salt formation (Yes/No) ([4]; A6S with Methanesulfonic acid (NO.3)): Yes; Salt formation (Yes/No) ([4]; A6S with Oxalic acid dihydrate (NO.7)): Yes; Salt formation (Yes/No) ([4]; A6S with Phosphoric acid (NO.4)): Yes; Salt formation (Yes/No) ([4]; A6S with Sulfuric acid (NO.2)): Yes; Salt formation (Yes/No) ([4]; A6S with p-Toluenesulfonic acid hydrate (NO.5)): Yes
CC(C)c1cc(N2CCN(CCO)CC2)cc([C@H](C)C2CC2)c1O [Compound A7] | B (B: Water volume used is greater than or equal to 0.1 mL and less than 1.0 mL) |  |  |  |  |  | 
CC(C)c1cc(N2CCN(CC(=O)OC3COC3)CC2)cc([C@H](C)C2CC2)c1O [Compound A8] | B (B: Water volume used is greater than or equal to 0.1 mL and less than 1.0 mL) |  |  |  |  |  | 
COC(=O)CN1CCN(c2cc(C(C)C)c(O)c([C@H](C)C3CC3)c2)CC12CC2 [Compound A11] |  |  | C (10 mg/kg<C≤20 mg/kg) | 0.12 to 0.27 | 0.68 to 3.12 | 12.05 to 14.53 | 
COC(=O)CN1CC2CCC(C1)N2c1cc(C(C)C)c(O)c([C@H](C)C2CC2)c1 [Compound A12] | A (A: Water volume used is less than 0.1 mL) |  | C (10 mg/kg<C≤20 mg/kg) | 0.50 to 0.77 | 1.22 to 7.40 | 9.90 to 34.25 | Approximate therapeutic index (SD rats [2]; vehicle Pure water): A (A when the index is ≥5)
CC(C)c1cc(N2CCN(CC(=O)OC(C)(C)C)CC2)cc([C@H](C)C2CC2)c1O [Compound A13] | A (A: Water volume used is less than 0.1 mL) |  |  |  |  |  | 
CC(C)c1cc(N2CCN(CC(=O)OC(C)(C)C)CC2)cc([C@H](C)C2CC2)c1OCC(=O)OC(C)(C)C [Compound A14] |  | C (10 mg/kg<C≤20 mg/kg) |  |  |  |  | Onset time (SD rats [3]; [7]): 0.18 to 1.63 min; Righting Reflex Duration (SD rats [3]; [7]): 1.95 to 11.67 min; Sedation Duration (SD rats [3]; [7]): 19.40-28.45- min
CC(C)c1cc(N2CCN(CC(=O)O)CC2)cc([C@H](C)C2CC2)c1O [Compound A15] | A (A: Water volume used is less than 0.1 mL) |  | D (D>20 mg/kg) |  |  |  | 
CC(C)c1cc(N2CCN(CC(=O)OC(C)(C)C)CC2)cc(C(C)C)c1O [Compound A17] |  | A (A≤5 mg/kg) |  |  |  |  | Onset time (SD rats [3]; [7]): 0.15 to 0.63 min; Righting Reflex Duration (SD rats [3]; [7]): 3.67 to 9.38 min; Sedation Duration (SD rats [3]; [7]): 24.42 to 35.32 min
CC(C)c1cc(N2CCN(CC(=O)OC(C)(C)C)C3(CC3)C2)cc([C@H](C)C2CC2)c1O [Compound A18] |  |  | B (5 mg/kg<B≤10 mg/kg) | 0.23 to 0.98 | 3.02 to 19.25 | 16.47 to 35.57 | 
CC(C)c1cc(N2CCN([C@@H](C)C(=O)OC(C)(C)C)CC2)cc([C@H](C)C2CC2)c1O [Compound A19S] |  |  | B (5 mg/kg<B≤10 mg/kg) | 0.70 to 0.98 | 2.21 to 5.57 | 14.55 to 21.30 | 
COC(=O)[C@H](C)N1CCN(c2cc(C(C)C)c(O)c(C(C)C)c2)CC1 [Compound A20S] |  |  | B (5 mg/kg<B≤10 mg/kg) | 0.18 to 0.43 | 2.18 to 7.48 | 15.75 to 23.72 | 
CC(C)c1cc(N2CCN([C@@H](C)C(=O)OC(C)(C)C)CC2)cc(C(C)C)c1O [Compound A21S] |  | B (5 mg/kg<B≤10 mg/kg) |  |  |  |  | Onset time (SD rats [3]; [7]): 0.25 to 0.42 min; Righting Reflex Duration (SD rats [3]; [7]): 12.02 to 22.80 min; Sedation Duration (SD rats [3]; [7]): 28.72 to 56.33 min
CC[C@@H](C(=O)OC)N1CCN(c2cc(C(C)C)c(O)c([C@H](C)C3CC3)c2)CC1 [Compound A22S] | A (A: Water volume used is less than 0.1 mL) |  |  |  |  |  | 
COC(=O)C(C(C)C)N1CCN(c2cc(C(C)C)c(O)c([C@H](C)C3CC3)c2)CC1 (stereo partly shown) [Compound A23] | C (C: Water volume used is greater than or equal to 1.0 mL and less than 5.0 mL) | B (5 mg/kg<B≤10 mg/kg) |  |  |  |  | Onset time (SD rats [3]; [7]): 0.20 to 0.22 min; Righting Reflex Duration (SD rats [3]; [7]): 4.93 to 15.08 min; Sedation Duration (SD rats [3]; [7]): 30.48 to 39.13 min
COC(=O)C(C1CC1)N1CCN(c2cc(C(C)C)c(O)c([C@H](C)C3CC3)c2)CC1 (stereo partly shown) [Compound A24] | C (C: Water volume used is greater than or equal to 1.0 mL and less than 5.0 mL) | B (5 mg/kg<B≤10 mg/kg) |  |  |  |  | Onset time (SD rats [3]; [7]): 0.17 to 0.18 min; Righting Reflex Duration (SD rats [3]; [7]): 5.53 to 9.67 min; Sedation Duration (SD rats [3]; [7]): 19.33 to 38.80 min
COC(=O)[C@H](C)[N+]1(C)CCN(c2cc(C(C)C)c(O)c([C@H](C)C3CC3)c2)CC1 [Compound A25S] |  | D (D>20 mg/kg) |  |  |  |  | 
CCOC(=O)C(C1CC1)N1CCN(c2cc(C(C)C)c(O)c([C@H](C)C3CC3)c2)CC1 (stereo partly shown) [Compound A26] | A (A: Water volume used is less than 0.1 mL) |  | A (A≤5 mg/kg) | 0.42 to 0.43 | 7.03 to 10.48 | 14.75 to 21.28 | 
CC(C)c1cccc(C(C)C)c1O [Propofol, reference compound] |  |  |  |  |  |  | water solubility [5]: insoluble in water; Approximate therapeutic index (SD rats [2]; vehicle Lipid emulsion): B (B when the index is <5 but ≥3)
CC(C)c1cccc([C@H](C)C2CC2)c1O [ciprofol] |  |  |  |  |  |  | water solubility [5]: insoluble in water
CC(C)c1cccc(C(C)C)c1OCOP(=O)(O)O [fospropofol disodium, Fospropofol disodium] |  |  |  |  |  |  | Onset time [6]: up to 2.9 minutes

Source: US20260137676A1 (priority 2022, published 2026)
